Values after ≈ are worked out from the molar mass of the structure shown.
Key:
Candida parapsilosis = experiment: Antifungal activity against Candida parapsilosis CGMCC 2.3989 assessed as inhibition of fungal growth incubated for 48 hrs; assay type: functional; settings: Lodderomyces parapsilosis
Candida albicans [1] = experiment: Antifungal activity against Candida albicans 14936 assessed as inhibition of fungal growth incubated for 48 hrs; assay type: functional
Candida tropicalis = experiment: Antifungal activity against Candida tropicalis CGMCC 2.1975 assessed as inhibition of fungal growth incubated for 48 hrs; assay type: functional
Candida albicans [2] = experiment: Antifungal activity against Candida albicans CGMCC 2.2086 assessed as inhibition of fungal growth incubated for 48 hrs; assay type: functional
Candida albicans [3] = experiment: Antifungal activity against Candida albicans SP3876 assessed as inhibition of fungal growth incubated for 48 hrs; assay type: functional
Candida albicans [4] = experiment: Antifungal activity against Candida albicans 56452 assessed as inhibition of fungal growth incubated for 48 hrs; assay type: functional
Candida albicans [5] = experiment: Antifungal activity against Candida albicans 17546 assessed as inhibition of fungal growth incubated for 48 hrs; assay type: functional
Candida albicans [6] = experiment: Antifungal activity against Candida albicans SP3902 assessed as inhibition of fungal growth incubated for 48 hrs; assay type: functional
Candida albicans [7] = experiment: Antifungal activity against Fluconazole-resistant Candida albicans 58288 assessed as inhibition of fungal growth incubated for 48 hrs; assay type: functional
Candida albicans [8] = experiment: Antifungal activity against Fluconazole-resistant Candida albicans 56214 assessed as inhibition of fungal growth incubated for 48 hrs; assay type: functional
Candida albicans [9] = experiment: Antifungal activity against Candida albicans SP3903 assessed as inhibition of fungal growth incubated for 48 hrs; assay type: functional
Candida albicans [10] = experiment: Antifungal activity against Candida albicans SP3931 assessed as inhibition of fungal growth incubated for 48 hrs; assay type: functional
Candida albicans [11] = experiment: Antifungal activity against Candida albicans CGMCC 2.2086 assessed as inhibition of fungal growth incubated for 48 hrs in presence of NaCl; assay type: functional
[12] = Stability of the compound in NaCl assessed as change in secondary structure by CD spectra analysis; assay type: physicochemical
[13] = Stability of the compound in NH4Cl assessed as change in secondary structure by CD spectra analysis; assay type: physicochemical
[14] = Hemolytic activity in human red blood cells assessed as hemolysis rate at 512 uM incubated for 1 hr relative to control; assay type: toxicity, cell-based, Erythrocyte; settings: read-out: Activity
[15] = Stability of the compound in MgCl2 assessed as change in secondary structure by CD spectra analysis; assay type: physicochemical
Candida albicans [16] = experiment: Antifungal activity against Candida albicans CGMCC 2.2086 assessed as inhibition of fungal growth incubated for 48 hrs in presence of ZnCl2; assay type: functional
[17] = Stability of the compound in FeCl3 assessed as change in secondary structure by CD spectra analysis; assay type: physicochemical
Candida albicans [18] = experiment: Antifungal activity against Candida albicans CGMCC 2.2086 assessed as inhibition of fungal growth incubated for 48 hrs in presence of MgCl2; assay type: functional
Candida albicans [19] = experiment: Antifungal activity against Candida albicans CGMCC 2.2086 assessed as inhibition of fungal growth incubated for 48 hrs in presence of CaCl2; assay type: functional
[20] = Stability of the compound in CaCl2 assessed as change in secondary structure by CD spectra analysis; assay type: physicochemical
[21] = Hemolytic activity in human red blood cells assessed as hemolysis incubated for 1 hr; assay type: toxicity, cell-based, Erythrocyte
Candida albicans [22] = experiment: Antifungal activity against Candida albicans CGMCC 2.2086 assessed as inhibition of fungal growth incubated for 48 hrs in presence of NH4Cl; assay type: functional
Candida albicans [23] = experiment: Antifungal activity against Candida albicans CGMCC 2.2086 assessed as inhibition of fungal growth incubated for 48 hrs in presence of KCl; assay type: functional
Candida albicans [24] = experiment: Antifungal activity against Candida albicans CGMCC 2.2086 assessed as inhibition of fungal growth incubated for 48 hrs in presence of FeCl3; assay type: functional
[25] = Stability of the compound in ZnCl2 assessed as change in secondary structure by CD spectra analysis; assay type: physicochemical
[26] = Stability of the compound in KCl assessed as change in secondary structure by CD spectra analysis; assay type: physicochemical
[27] = Cytotoxicity against porcine IPEC-J2 cells assessed as reduction in cell viability at 128 uM incubated for 4 hrs by MTT assay; assay type: toxicity, cell-based, Sus scrofa; settings: pig, ipec-j2, 4 h
HEK293 = experiment: Cytotoxicity against HEK293 cells assessed as reduction in cell viability at 128 uM incubated for 4 hrs by MTT assay; assay type: toxicity, cell-based; settings: human, hek293, 4 h

Row | SMILES | MIC95 (Candida parapsilosis) [µM] | MIC95 (Candida albicans [1]) [µM] | MIC95 (Candida tropicalis) [µM] | MIC95 (Candida albicans [2]) [µM] | MIC95 (Candida albicans [3]) [µM] | MIC95 (Candida albicans [4]) [µM] | MIC95 (Candida albicans [5]) [µM] | MIC95 (Candida albicans [6]) [µM] | MIC95 (Candida albicans [7]) [µM] | MIC95 (Candida albicans [8]) [µM] | MIC95 (Candida albicans [9]) [µM] | MIC95 (Candida albicans [10]) [µM] | MIC95 (Candida albicans [11]) [µM] | Stability [12] | Stability [13] | hemolysis at 1 h, 512 µM [14] [%] | Stability [15] | MIC95 (Candida albicans [16]) [µM] | Stability [17] | MIC95 (Candida albicans [18]) [µM] | also measured
1 | CC(=O)N1CCN(c2ccc(OCC3COC(Cn4ccnc4)(c4ccc(Cl)cc4Cl)O3)cc2)CC1 (centres undefined) [KETOCONAZOLE] | 4 (≈ 2.13 µg/mL) | 4 (≈ 2.13 µg/mL) | 2 (≈ 1.06 µg/mL) | 2 (≈ 1.06 µg/mL) | 16 (≈ 8.5 µg/mL) | 1 (≈ 0.531 µg/mL) | 2 (≈ 1.06 µg/mL) | 2 (≈ 1.06 µg/mL) | > 64 | > 64 | 4 (≈ 2.13 µg/mL) | 4 (≈ 2.13 µg/mL) | – | – | – | – | – | – | – | – | –
2 | CC(C)[C@H](N)C(=O)N[C@H](C(=O)N[C@H](CCCNC(=N)N)C(=O)N[C@@H](CCCNC(=N)N)C(=O)N[C@@H](Cc1c[nH]cn1)C(=O)N[C@H](C(=O)N[C@H](C(N)=O)C(C)C)C(C)C)C(C)C | > 64 | > 64 | 64 (≈ 55.2 µg/mL) | > 64 | > 64 | > 64 | > 64 | > 64 | > 64 | > 64 | > 64 | > 64 | > 64 | Unstable | Stable | -0.02 | Stable | > 64 | Stable | > 64 | MIC95 (Candida albicans [19]): > 64 µM; Stability [20]: Stable; HC50 at 1 h [21]: > 512 µM; MIC95 (Candida albicans [22]): > 64 µM; MIC95 (Candida albicans [23]): > 64 µM; MIC95 (Candida albicans [24]): > 64 µM; Stability [25]: Stable; Stability [26]: Stable
3 | CC[C@H](C)[C@H](N)C(=O)N[C@H](C(=O)N[C@H](CCCNC(=N)N)C(=O)N[C@@H](CCCNC(=N)N)C(=O)N[C@@H](Cc1c[nH]cn1)C(=O)N[C@H](C(=O)N[C@H](C(=O)N[C@H](C(=O)N[C@H](C(=O)N[C@H](CCCNC(=N)N)C(=O)N[C@@H](CCCNC(=N)N)C(=O)N[C@@H](Cc1c[nH]cn1)C(=O)N[C@H](C(=O)N[C@H](C(N)=O)[C@@H](C)CC)[C@@H](C)CC)[C@@H](C)CC)[C@@H](C)CC)[C@@H](C)CC)[C@@H](C)CC)[C@@H](C)CC | 32 (≈ 58.3 µg/mL) | 32 (≈ 58.3 µg/mL) | 2 (≈ 3.64 µg/mL) | 16 (≈ 29.1 µg/mL) | 32 (≈ 58.3 µg/mL) | 32 (≈ 58.3 µg/mL) | 64 (≈ 117 µg/mL) | 8 (≈ 14.6 µg/mL) | 32 (≈ 58.3 µg/mL) | 64 (≈ 117 µg/mL) | 64 (≈ 117 µg/mL) | 16 (≈ 29.1 µg/mL) | > 64 | Unstable | Stable | 1.84 | Stable | 64 | Stable | 64 | MIC95 (Candida albicans [19]): > 64 µM; Stability [20]: Stable; HC50 at 1 h [21]: > 512 µM; MIC95 (Candida albicans [22]): 32 µM; MIC95 (Candida albicans [23]): 32 µM; MIC95 (Candida albicans [24]): 64 µM; Stability [25]: Stable; Stability [26]: Stable
4 | CC(C)[C@H](N)C(=O)N[C@H](C(=O)N[C@H](CCCNC(=N)N)C(=O)N[C@@H](CCCNC(=N)N)C(=O)N[C@@H](Cc1c[nH]cn1)C(=O)N[C@H](C(=O)N[C@H](C(=O)N[C@H](C(=O)N[C@H](C(=O)N[C@H](CCCNC(=N)N)C(=O)N[C@@H](CCCNC(=N)N)C(=O)N[C@@H](Cc1c[nH]cn1)C(=O)N[C@H](C(=O)N[C@H](C(=O)N[C@H](C(=O)N[C@H](C(=O)N[C@H](CCCNC(=N)N)C(=O)N[C@@H](CCCNC(=N)N)C(=O)N[C@@H](Cc1c[nH]cn1)C(=O)N[C@H](C(=O)N[C@H](C(=O)N[C@H](C(=O)N[C@H](C(=O)N[C@H](CCCNC(=N)N)C(=O)N[C@@H](CCCNC(=N)N)C(=O)N[C@@H](Cc1c[nH]cn1)C(=O)N[C@H](C(=O)N[C@H](C(N)=O)C(C)C)C(C)C)C(C)C)C(C)C)C(C)C)C(C)C)C(C)C)C(C)C)C(C)C)C(C)C)C(C)C)C(C)C)C(C)C)C(C)C)C(C)C | 4 (≈ 13.6 µg/mL) | 8 (≈ 27.2 µg/mL) | 4 (≈ 13.6 µg/mL) | 8 (≈ 27.2 µg/mL) | 8 (≈ 27.2 µg/mL) | 8 (≈ 27.2 µg/mL) | 8 (≈ 27.2 µg/mL) | 8 (≈ 27.2 µg/mL) | 8 (≈ 27.2 µg/mL) | 4 (≈ 13.6 µg/mL) | 4 (≈ 13.6 µg/mL) | 8 (≈ 27.2 µg/mL) | 64 | Unstable | Stable | 21.7 | Stable | 32 | Stable | 16 | Activity [27]: Toxic; MIC95 (Candida albicans [19]): 32 µM; Stability [20]: Stable; HC50 at 1 h [21]: > 512 µM; MIC95 (Candida albicans [22]): 8 µM; MIC95 (Candida albicans [23]): 16 µM; Activity (HEK293): Toxic; MIC95 (Candida albicans [24]): 16 µM; Stability [25]: Stable; Stability [26]: Stable
5 | CC[C@H](C)[C@H](N)C(=O)N[C@H](C(=O)N[C@H](CCCNC(=N)N)C(=O)N[C@@H](CCCNC(=N)N)C(=O)N[C@@H](Cc1c[nH]cn1)C(=O)N[C@H](C(=O)N[C@H](C(N)=O)[C@@H](C)CC)[C@@H](C)CC)[C@@H](C)CC | > 64 | > 64 | 64 (≈ 58.8 µg/mL) | > 64 | > 64 | > 64 | > 64 | 64 (≈ 58.8 µg/mL) | > 64 | > 64 | > 64 | > 64 | > 64 | Unstable | Stable | -1.57 | Stable | > 64 | Stable | > 64 | MIC95 (Candida albicans [19]): > 64 µM; Stability [20]: Stable; HC50 at 1 h [21]: > 512 µM; MIC95 (Candida albicans [22]): > 64 µM; MIC95 (Candida albicans [23]): > 64 µM; MIC95 (Candida albicans [24]): > 64 µM; Stability [25]: Stable; Stability [26]: Stable
6 | CC(C)[C@H](N)C(=O)N[C@H](C(=O)N[C@H](CCCNC(=N)N)C(=O)N[C@@H](CCCNC(=N)N)C(=O)N[C@@H](Cc1c[nH]cn1)C(=O)N[C@H](C(=O)N[C@H](C(=O)N[C@H](C(=O)N[C@H](C(=O)N[C@H](CCCNC(=N)N)C(=O)N[C@@H](CCCNC(=N)N)C(=O)N[C@@H](Cc1c[nH]cn1)C(=O)N[C@H](C(=O)N[C@H](C(N)=O)C(C)C)C(C)C)C(C)C)C(C)C)C(C)C)C(C)C)C(C)C | > 64 | > 64 | 4 (≈ 6.84 µg/mL) | > 64 | > 64 | > 64 | 64 (≈ 109 µg/mL) | > 64 | > 64 | > 64 | > 64 | > 64 | > 64 | Unstable | Stable | -1.2 | Stable | > 64 | Stable | > 64 | MIC95 (Candida albicans [19]): > 64 µM; Stability [20]: Stable; HC50 at 1 h [21]: > 512 µM; MIC95 (Candida albicans [22]): 64 µM; MIC95 (Candida albicans [23]): > 64 µM; MIC95 (Candida albicans [24]): > 64 µM; Stability [25]: Stable; Stability [26]: Stable
